What was measured:
[1] = system: 409-B2 iCRISPR-Cas9n hiPSCs; assay: BFP insertion (871 nt ssODN) efficiency in AAVS1 iCRISPR locus, microscopy; type: cell-based, human; settings: 7 days of BFP expression
Excerpt: FIG. 8: Impact of the CRISPY mix and its component NU7026 on BFP insertion (ssODN) efficacy in human induced pluripotent stem cells. The design of the mtagBFP2 (Subach et al. 2011) ssODN donor and the iCRISPR system is shown in (A). We inserted a 871 nt (including 50 nt homology arms) sequence coding for a 2A-self cleaving peptide in front of a Blue Fluorescent Protein (BFP), directly after the N-terminal nuclear localization signal sequence (NLS) of the Cas9n in the heterozygous AAVS1 iCRISPR locus (409-B2 iCRISPR-Cas9n hiPSCs). If the sequence is inserted, doxycycline will lead to expression of nucleus-imported BFP. […] Two images (50× magnification, white size bar 200 μm) from each of three technical replicates for the respective treatments were used to quantify the percentage of cells with BFP insertion using ImageJ (C).
409-B2 iCRISPR-Cas9n hiPSCs were nucleofected with gRNAs and the Blue Fluorescent Protein (BFP) single stranded oligo (FIG. 8A, 330 ng) in […] for either mock, NU7026, and CRISPY mix treatment. […] Images were blinded and BFP positive nuclei were counted using the Adobe Photoshop CS5 counting tool. Propidium iodide positive nuclei were quantified using ImageJ by dividing the area of nuclei (default threshold) with the mean area of a single nucleus.

[2] = system: 409-B2 hiPSCs; assay: PGE efficiency with recombinant Cpf1 ribonucleoprotein electroporation; type: cell-based, human
Excerpt: The recombinant A.s. Cpf1 and S.p. Cas9 protein and electroporation enhancer was ordered from IDT (Coralville, USA) and nucleofection was done using the manufacturer's protocol, except for the following alterations. […] Cells were counted using the Countess Automated Cell Counter (Invitrogen). […]
CRISPresso (Pinello et al. 2016) was used to analyse sequencing data from CRISPR genome editing experiments for percentage of wildtype, targeted nucleotide substitutions (TNS), indels and mix of TNS and indels. […] Sequencing data from colonies after single cell seeding (FIGS. 3B and C) was further analyzed by evaluating the actual read sequences using SAMtools. Clonal colonies were differentiated from mixed colonies using sequence read proportions. Colonies were counted as clones if the clear majority of reads consisted of a single sequence (homozygous) or of two sequences of similar read count (heterozygous). […]

Compound: O=c1cc(N2CCOCC2)oc2c1ccc1ccccc12 [NU7026]
- nuclei positive for BFP [1]: 6%
- increase of nuclei positive for BFP ([1]; vs no-CRISPY control (3.7%)): 1.6 fold
- PGE increase ([2]; DMNT1): 2.4 fold
- PGE increase ([2]; HPRT): 2.1 fold

— patent US12173309B2, “Compounds for increasing genome editing efficiency” (Max-Planck-Gesellschaft zur Förderung der Wissenschaften …, priority 2017, dated 2024)
